Results on two molecules are retold here after ChEMBL document CHEMBL1133304, “Design and synthesis of potent thiol-based inhibitors of endothelin converting enzyme-1” (Bioorg Med Chem Lett, 2000).

The structures appear in SMILES notation.

The target in experiment [1] is T1, Endothelin-converting enzyme 1 (Homo sapiens, UniProt P42892).
T1 sequence (P42892 whole entry): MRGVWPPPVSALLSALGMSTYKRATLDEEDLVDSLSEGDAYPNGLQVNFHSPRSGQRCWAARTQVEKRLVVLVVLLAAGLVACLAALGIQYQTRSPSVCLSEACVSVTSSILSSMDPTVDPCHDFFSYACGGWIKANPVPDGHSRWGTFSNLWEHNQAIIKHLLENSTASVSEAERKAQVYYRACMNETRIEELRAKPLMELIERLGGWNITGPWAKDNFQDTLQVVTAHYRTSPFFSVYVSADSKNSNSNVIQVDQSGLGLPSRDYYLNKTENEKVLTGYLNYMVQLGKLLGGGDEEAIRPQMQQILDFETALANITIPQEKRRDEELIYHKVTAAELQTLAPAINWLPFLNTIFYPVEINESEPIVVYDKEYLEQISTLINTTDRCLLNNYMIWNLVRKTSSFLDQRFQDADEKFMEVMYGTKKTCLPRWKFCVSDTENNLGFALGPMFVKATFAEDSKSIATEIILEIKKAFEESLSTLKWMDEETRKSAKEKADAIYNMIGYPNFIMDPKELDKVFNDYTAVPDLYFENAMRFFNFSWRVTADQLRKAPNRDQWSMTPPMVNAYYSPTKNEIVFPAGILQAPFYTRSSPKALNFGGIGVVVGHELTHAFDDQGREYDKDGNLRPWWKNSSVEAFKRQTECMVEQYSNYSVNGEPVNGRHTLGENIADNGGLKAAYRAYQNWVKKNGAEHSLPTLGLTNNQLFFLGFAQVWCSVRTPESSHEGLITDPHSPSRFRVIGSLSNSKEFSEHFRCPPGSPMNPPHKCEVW
Kind of experiment: In vitro inhibition of human Endothelin converting Enzyme-1 activity.

Experiment [2] has as its system Rattus norvegicus. Kind of experiment: Intravenously injected compound (0.3 nmol/kg) was tested in rat for the inhibitory activity against endothelin-1 (ET-1) pressor response after 8 hour. It counts as functional.
The test system of experiment [3] is Rattus norvegicus. The experiment in a line: Intravenously injected compound (0.3 nmol/kg) was tested in rat for the inhibitory activity against endothelin-1 (ET-1) pressor response after 24 hour. The class given is functional.

Turning to `CC(C)[C@H](S)C(=O)NC1(C(=O)N[C@@H](Cc2ccc(-c3ccccc3)cc2)C(=O)O)CCCC1`, the IC50 in experiment [1] turned out to be 77 nM.

For `CCC[C@H](SC(C)=O)C(=O)NC1(C(=O)N[C@@H](Cc2ccc(-c3ccccc3)cc2)C(=O)OC)CCCC1`, the Inhibition in experiment [2] is on record as 75%; in experiment [3], 30%.
